8 compounds from ChEMBL document CHEMBL3826912 (ACS Med Chem Lett, 2016) can be followed below.

Where only a bound is given, the exact number is not on record here.

The nature of series [1]: in vivo. As to conditions: rat, po, 5 mg/kg; call rule not given here.
Series [2] in a line: in vitro. The conditions noted are these: human, MT2 cells.
Description: Cytotoxicity against human MT2 cells
The nature of series [3]: Half life in human liver microsomes at 0.5 uM in presence of NADPH by LC-MS/MS analysis. The format is ADME. A general note: Microsomes from liver hold many membrane-bound enzymes, among them those of drug oxidation.
Series [4] is described as follows: Half life in rat liver microsomes at 0.5 uM in presence of NADPH by LC-MS/MS analysis. The series is classed as ADME.
The nature of series [5]: Half life in dog liver microsomes at 0.5 uM in presence of NADPH by LC-MS/MS analysis. The format is ADME, Canis lupus familiaris.
Series [6] can be described thus: Half life in monkey liver microsomes at 0.5 uM in presence of NADPH by LC-MS/MS analysis. The format is ADME, Macaca mulatta. The conditions noted are these: rhesus monkey.
Series [7] is described as follows: Oral bioavailability in mouse at 5 mg/kg by LC-MS/MS analysis. As to conditions: in vivo. The series is classed as ADME, organism-based.
The nature of series [8]: Oral bioavailability in rat at 5 mg/kg by LC-MS/MS analysis. The series is classed as ADME, organism-based. The conditions noted are these: in vivo.
Series [9] is described as follows: Oral bioavailability in dog at 1.85 mg/kg by LC-MS/MS analysis. The conditions noted are these: in vivo. The format is ADME, organism-based, Canis lupus familiaris.
Series [10] can be described thus: Oral bioavailability in Cynomolgus monkey at 2 mg/kg by LC-MS/MS analysis. The series is classed as ADME, organism-based, Macaca fascicularis. The conditions noted are these: in vivo.
Series [11] in a line: AUCtotal in mouse at 5 mg/kg administered via oral gavage by LC-MS/MS analysis. Details: dose 5 mg/kg, route oral, time AUCmax. As to conditions: in vivo. The series is classed as ADME, organism-based.
Series [12] in a line: AUCtotal in rat at 5 mg/kg administered via oral gavage by LC-MS/MS analysis. The format is ADME, organism-based. The arrangement: dose 5 mg/kg, time AUCmax, route oral. The conditions noted are these: in vivo.
A short description of series [13]: AUCtotal in dog at 1.85 mg/kg administered via oral gavage by LC-MS/MS analysis. The format is ADME, organism-based, Canis lupus familiaris. The arrangement: dose 1.85 mg/kg, time AUCmax, route oral. The conditions noted are these: in vivo.
Series [14] can be described thus: AUCtotal in Cynomolgus monkey at 2 mg/kg administered via oral gavage by LC-MS/MS analysis. The format is ADME, organism-based, Macaca fascicularis. Details: dose 2 mg/kg, route oral, time AUCmax. As to conditions: in vivo.
The nature of series [15]: Drug level in mouse at 5 mg/kg administered via oral gavage after 24 hrs by LC-MS/MS analysis. The conditions noted are these: in vivo, read-out: Drug uptake. The series is classed as ADME, organism-based.
A short description of series [16]: Drug level in rat at 5 mg/kg administered via oral gavage after 24 hrs by LC-MS/MS analysis. The format is ADME, organism-based. As to conditions: in vivo, read-out: Drug uptake.
A short description of series [17]: Drug level in dog at 1.85 mg/kg administered via oral gavage after 24 hrs by LC-MS/MS analysis. The conditions noted are these: in vivo, read-out: Drug uptake. The format is ADME, organism-based, Canis lupus familiaris.
Series [18] can be described thus: Drug level in Cynomolgus monkey at 2 mg/kg administered via oral gavage after 24 hrs by LC-MS/MS analysis. As to conditions: in vivo, read-out: Drug uptake. The format is ADME, organism-based, Macaca fascicularis.
Series [19] can be described thus: Half life in iv dosed mouse by LC-MS/MS analysis. The series is classed as ADME, organism-based. The conditions noted are these: in vivo.
Series [20] can be described thus: Half life in iv dosed rat by LC-MS/MS analysis. The series is classed as ADME, organism-based. The conditions noted are these: in vivo.
Series [21] in a line: Half life in iv dosed dog by LC-MS/MS analysis. The format is ADME, organism-based, Canis lupus familiaris. As to conditions: in vivo.
Series [22] can be described thus: Half life in iv dosed Cynomolgus monkey by LC-MS/MS analysis. The format is ADME, organism-based, Macaca fascicularis. The conditions noted are these: in vivo.
The nature of series [23]: Protein binding in human serum by ultracentrifugation method. The format is ADME. The conditions noted are these: read-out: PB.
Series [24] concerns Salmonella typhimurium. Briefly: Mutagenicity in Salmonella typhimurium. The format is toxicity, organism-based. As to conditions: salmonella enterica subsp. enterica serovar typhimurium.
The nature of series [25]: Inhibition of CYP450 in human microsomes. The series is classed as ADME.
Series [26] can be described thus: Dissociation constant, pKa of the compound. The series is classed as physicochemical.

What is called AUC(0-t) is exposure summed from dosing to a finite time, without extrapolation to infinity. Usually CC50 stands for the concentration at which the toxic effect on the cells reaches its halfway point. Usually half-life stands for how long it takes for the measured level to halve. What is called bioavailability is dose-corrected exposure relative to a reference, in per cent. A word on the AUC: it is the area under the concentration-time curve, a measure of exposure. Usually pKa stands for the negative logarithm of the acid dissociation constant.

On to `C=C(C)[C@@H]1CC[C@]2(CNCCN(C)C)CC[C@]3(C)[C@H](CC[C@@H]4[C@@]5(C)CC=C(c6ccc(C(=O)O)cc6)C(C)(C)[C@@H]5CC[C@]43C)[C@@H]12`, for which the AUC(0-t) at 24 h in series [1] is 0.153 µM·h. In addition, it took 1.24 nM to reach half-maximal cytotoxicity in [2] (CC50).
On to `C=C(C)[C@@H]1CC[C@]2(NCCN3CCS(=O)(=O)CC3)CC[C@]3(C)[C@H](CC[C@@H]4[C@@]5(C)CC=C(c6ccc(C(=O)O)cc6)C(C)(C)[C@@H]5CC[C@]43C)[C@@H]12` [BMS-955176], for which the half-life at 0.5 µM was over 2 h in series [3], over 2 h in [4], over 2 h in series [5] and 0.2 h in series [6]. Further, the bioavailability amounted to 27% in series [7], 26% in series [8], 8.5% in series [9] and 3.9% in [10]. For the same compound, the AUC in series [11] is 28.9 µM·h; in series [12] it was 14.2 µM·h; in series [13], 29.4 µM·h; in series [14], 0.995 µM·h. Besides, the concentration at 24 h in series [15] is 256 nM; in series [16], 128 nM; in series [17] it was 559 nM; in [18], 17.4 nM. In addition, the half-life in series [19] was 8.9 h; in [20] it was 6.6 h; in series [21] it was 31.7 h; in series [22], 8.6 h. Besides, in series [23], the fraction unbound was under 0.16. Moreover, in series [24], the Activity entry is given as “Non-toxic”. Further, the “inhibition (INH)” value in series [25] is “Not Active”. In addition, the AUC(0-t) at 24 h in series [1] came out at 4.13 µM·h. Further, the midpoint of cytotoxicity in series [2], the CC50, lay at 9.2 nM.
As to `C=C(C)[C@@H]1CC[C@]2(CNCCCN3CCS(=O)(=O)CC3)CC[C@]3(C)[C@H](CC[C@@H]4[C@@]5(C)CC=C(c6ccc(C(=O)O)cc6)C(C)(C)[C@@H]5CC[C@]43C)[C@@H]12`, the pKa in series [26] is 4.5. The compound also displayed an AUC(0-t) at 24 h in series [1] of 1.71 µM·h. The CC50 in series [2] was determined as 3.5 nM.
Consider `C=C(C)[C@@H]1CC[C@]2(CNC(C)C)CC[C@]3(C)[C@H](CC[C@@H]4[C@@]5(C)CC=C(c6ccc(C(=O)O)cc6)C(C)(C)[C@@H]5CC[C@]43C)[C@@H]12`, for which the cytotoxic concentration (CC50) in [2] is 2.36 nM.
With `C=C(C)[C@@H]1CC[C@]2(CNCCO)CC[C@]3(C)[C@H](CC[C@@H]4[C@@]5(C)CC=C(c6ccc(C(=O)O)cc6)C(C)(C)[C@@H]5CC[C@]43C)[C@@H]12`, the AUC(0-t) at 24 h in series [1] stood at 4.98 µM·h. Also, the CC50 in series [2] was determined as 8.48 nM.
For `C=C(C)[C@@H]1CC[C@]2(C(=O)O)CC[C@]3(C)[C@H](CC[C@@H]4[C@@]5(C)CC=C(c6ccc(C(=O)O)cc6)C(C)(C)[C@@H]5CC[C@]43C)[C@@H]12` the same measures were 5.72 µM·h and 27.2 nM.
In turn, `C=C(C)[C@@H]1CC[C@]2(C(=O)NCCN(C)C)CC[C@]3(C)[C@H](CC[C@@H]4[C@@]5(C)CC=C(c6ccc(C(=O)O)cc6)C(C)(C)[C@@H]5CC[C@]43C)[C@@H]12` came in with an AUC(0-t) at 24 h in series [1] of 1.62 µM·h. In series [2], half-maximal cytotoxicity (CC50) was put at 2.61 nM.
In turn, `C=C(C)[C@@H]1CC[C@]2(CNCCCN3CCCC3=O)CC[C@]3(C)[C@H](CC[C@@H]4[C@@]5(C)CC=C(c6ccc(C(=O)O)cc6)C(C)(C)[C@@H]5CC[C@]43C)[C@@H]12` displayed an area under the curve AUC(0-t) at 24 h in series [1] of 1.04 µM·h. The same compound came in with a 50% cytotoxic concentration (CC50) in series [2] of 5.8 nM.
